Test system: Clostridium ljungdahlii
Assay: Formation of acetic acid and ethanol from synthesis gas in CGF1 mineral medium with refeeding of cysteine (Example 3)
Type: cell-based
Method: For the biotransformation of hydrogen and carbon dioxide to acetic acid and ethanol the homoacetogenic bacterium Clostridium ljungdahlii was cultivated on synthesis gas with refeeding of cysteine. All cultivation steps were carried out under anaerobic conditions in pressure-resistant glass bottles that can be closed airtight with a butyl rubber stopper.
The chemolithoautotrophic cultivation was carried out in a 1 L pressure-resistant glass bottle at 37° C., 100 rpm and a ventilation rate of 3 L/h with a premixed gas with 67% H2, 33% CO2 in an open water bath shaker for 69 h till OD600nm>0.4. The gas was discharged into the medium through a sparger with a pore size of 10 μm, which was mounted in the center of the reactors. Then the cell suspension was centrifuged and the cell pellet was resuspended in fresh CGF1 mineral medium as disclosed below.
For the production phase, as many washed cells from the preculture of C. ljungdahlii as necessary for an OD600nm of 0.2 were added to 100 ml mineral medium (CGF1 medium, pH 6.5, 1.4 g/L KOH, 2 g/L (NH4)2SO4, 1 g/L KH2PO4, 1 g/L K2HPO4, 10 mg/L FeSO4 X 7 H2O, 3.8 mg/L MnSO4 X 1 H2O, 246 mg/L MgSO4×7 H2O, aerated for 30 min with a premixed gas with 67% H2 and 33% CO2). […] The cultivation was carried out in 500 mL pressure-resistant glass bottles at 37° C., 150 rpm in an open water bath shaker for 163 h which were aerated to an overpressure of 0.8 bar with a premixed gas with 67% H2, 33% CO2 one time a day. The pH was held >5.0 by intermittent additions of a 140 g/L KOH solution. During the cultivation several 5 mL samples were taken to determinate OD600nm, pH and product formation. […] The determination of the product concentrations including the L-Cysteine concentration was performed by semiquantitative ^1H-NMR spectroscopy. As an internal quantification standard sodium trimethylsilylpropionate (T(M)SP) was used.

[1] = culture A, 400 mg/L L-cysteine-hydrochloride at start, no refeed, 0 h
[2] = culture A, 400 mg/L L-cysteine-hydrochloride at start, no refeed, 18.75 h
[3] = culture A, 400 mg/L L-cysteine-hydrochloride at start, no refeed, 41.5 h
[4] = culture A, 400 mg/L L-cysteine-hydrochloride at start, no refeed, 46.75 h
[5] = culture A, 400 mg/L L-cysteine-hydrochloride at start, no refeed, 65.5 h
[6] = culture A, 400 mg/L L-cysteine-hydrochloride at start, no refeed, 69.5 h
[7] = culture A, 400 mg/L L-cysteine-hydrochloride at start, no refeed, 89.75 h
[8] = culture A, 400 mg/L L-cysteine-hydrochloride at start, no refeed, 163.5 h
[9] = culture B, 200 mg/L L-cysteine-hydrochloride at start, no refeed, 0 h
[10] = culture B, 200 mg/L L-cysteine-hydrochloride at start, no refeed, 18.75 h
[11] = culture B, 200 mg/L L-cysteine-hydrochloride at start, no refeed, 41.5 h
[12] = culture B, 200 mg/L L-cysteine-hydrochloride at start, no refeed, 46.75 h
[13] = culture B, 200 mg/L L-cysteine-hydrochloride at start, no refeed, 65.5 h
[14] = culture B, 200 mg/L L-cysteine-hydrochloride at start, no refeed, 69.5 h
[15] = culture B, 200 mg/L L-cysteine-hydrochloride at start, no refeed, 89.75 h
[16] = culture B, 200 mg/L L-cysteine-hydrochloride at start, no refeed, 163.5 h
[17] = culture C, 200 mg/L L-cysteine-hydrochloride at start, re-fed 200 mg/L after 18, 41, 65, 89 h, 0 h
[18] = culture C, 200 mg/L L-cysteine-hydrochloride at start, re-fed 200 mg/L after 18, 41, 65, 89 h, 18.75 h
[19] = culture C, 200 mg/L L-cysteine-hydrochloride at start, re-fed 200 mg/L after 18, 41, 65, 89 h, 41.5 h
[20] = culture C, 200 mg/L L-cysteine-hydrochloride at start, re-fed 200 mg/L after 18, 41, 65, 89 h, 46.75 h
[21] = culture C, 200 mg/L L-cysteine-hydrochloride at start, re-fed 200 mg/L after 18, 41, 65, 89 h, 65.5 h
[22] = culture C, 200 mg/L L-cysteine-hydrochloride at start, re-fed 200 mg/L after 18, 41, 65, 89 h, 69.5 h
[23] = culture C, 200 mg/L L-cysteine-hydrochloride at start, re-fed 200 mg/L after 18, 41, 65, 89 h, 89.75 h
[24] = culture C, 200 mg/L L-cysteine-hydrochloride at start, re-fed 200 mg/L after 18, 41, 65, 89 h, 95.5 h
[25] = culture C, 200 mg/L L-cysteine-hydrochloride at start, re-fed 200 mg/L after 18, 41, 65, 89 h, 163.5 h

`Cl.N[C@@H](CS)C(=O)O` [L-Cysteine-HCl, L-cysteine hydrochloride] was tested, and the Acetate [1] was 34.0 mg/L, the Ethanol [1] was 2.0 mg/L and the “OD (600 nm)” value [1] was 0.206. For the same compound, the Acetate [2] was 1400.0 mg/L, the Ethanol [2] was 60.0 mg/L and the “OD (600 nm)” value [2] was 0.232. The Acetate [3] was 2550 mg/L, the Ethanol [3] was 420 mg/L and the “OD (600 nm)” value [3] was 0.293. For the same compound, the Acetate [4] was 2700 mg/L, the Ethanol [4] was 480 mg/L and the “OD (600 nm)” value [4] was 0.281. The Acetate [5] was 3500 mg/L, the Ethanol [5] was 580 mg/L and the “OD (600 nm)” value [5] was 0.324. For the same compound, the Acetate [6] was 3700 mg/L, the Ethanol [6] was 650 mg/L and the “OD (600 nm)” value [6] was 0.366. The Ethanol [7] was 580.0 mg/L, the “OD (600 nm)” value [7] was 0.324 and the Acetate [8] was 6100.0 mg/L. For the same compound, the Ethanol [8] was 670.0 mg/L, the “OD (600 nm)” value [8] was 0.339 and the Acetate [9] was 35.0 mg/L. For the same compound, the Ethanol [9] was 1.9 mg/L, the “OD (600 nm)” value [9] was 0.197 and the Acetate [10] was 1400.0 mg/L. The Ethanol [10] was 100.0 mg/L, the “OD (600 nm)” value [10] was 0.261 and the Acetate [11] was 2150 mg/L. For the same compound, the Ethanol [11] was 580 mg/L, the “OD (600 nm)” value [11] was 0.279 and the Acetate [12] was 2200 mg/L. The Ethanol [12] was 630 mg/L, the “OD (600 nm)” value [12] was 0.269 and the Acetate [13] was 2200 mg/L. The Ethanol [13] was 600 mg/L, the “OD (600 nm)” value [13] was 0.271 and the Acetate [14] was 2200 mg/L. For the same compound, the Ethanol [14] was 590 mg/L, the “OD (600 nm)” value [14] was 0.259 and the Acetate [15] was 2350.0 mg/L. The Ethanol [15] was 560.0 mg/L, the “OD (600 nm)” value [15] was 0.241 and the Acetate [16] was 2550.0 mg/L. For the same compound, the Ethanol [16] was 570.0 mg/L, the “OD (600 nm)” value [16] was 0.237 and the cell growth (culture C (re-fed) compared with cultures A and B) was “stronger cell growth”. The “concentrations of acetate and ethanol” value (culture C (re-fed) compared with cultures A and B, production phase) was “increased more”, the Acetate [17] was 27.0 mg/L and the Ethanol [17] was 2.0 mg/L. The “OD (600 nm)” value [17] was 0.209, the Acetate [18] was 1400.0 mg/L and the Ethanol [18] was 85.0 mg/L. The “OD (600 nm)” value [18] was 0.245, the Acetate [19] was 3000 mg/L and the Ethanol [19] was 510 mg/L. For the same compound, the “OD (600 nm)” value [19] was 0.339, the Acetate [20] was 3250 mg/L and the Ethanol [20] was 580 mg/L. For the same compound, the “OD (600 nm)” value [20] was 0.335, the Ethanol [21] was 790 mg/L and the “OD (600 nm)” value [21] was 0.399. The Ethanol [22] was 860 mg/L, the “OD (600 nm)” value [22] was 0.392 and the Acetate [23] was 5000.0 mg/L. The Ethanol [23] was 810.0 mg/L, the “OD (600 nm)” value [23] was 0.431 and the Acetate [24] was 5600.0 mg/L. The Ethanol [24] was 880.0 mg/L, the “OD (600 nm)” value [24] was 0.434 and the Acetate [25] was 7700.0 mg/L. For the same compound, the Ethanol [25] was 960.0 mg/L and the “OD (600 nm)” value [25] was 0.481.

Reference: patent US20160177259A1, “[…]” (Evonik Degussa GmbH, priority 2014, published 2016)
